Source: patent US20250230193A1, “CYCLIC COMPOUND HAVING SELECTIVE KRAS INHIBITORY EFFECT ON HRAS AND NRAS” (CHUGAI SEIYAKU KABUSHIKI KAISHA, priority 2022, published 2025)
Where a SMILES comes first, the peptide text is derived from it. Bridges are numbered along the chain shown (N, C = ends). [ ]: non-standard residue; d: D form. The star is where a group is joined. hPhe(3-Cl-4-CF3) = N[C@@H](CCc1ccc(C(F)(F)F)c(Cl)c1)C(=O)O; NPrPhe(4-CF3) = CCCN[C@@H](Cc1ccc(C(F)(F)F)cc1)C(=O)O; NEtPhe(4-Me) = CCN[C@@H](Cc1ccc(C)cc1)C(=O)O; Morpholine(3S-CO) = O=C(O)[C@@H]1COCCN1; NMeGly(cPent) = CN[C@H](C(=O)O)C1CCCC1; Pro(4,4-F2) = O=C(O)[C@@H]1CC(F)(F)CN1; NMeD = CN[C@@H](CC(=O)O)C(=O)O; NMeL = CN[C@@H](CC(C)C)C(=O)O; Morpholide = C1CN(*)CCO1; NMeA = CN[C@@H](C)C(=O)O; Ac5c = NC1(C(=O)O)CCCC1; Aze = O=C(O)[C@@H]1CCN1; NEtG = CCNCC(=O)O; Sar = CNCC(=O)O

Legend:
[1] = target: GDP-bound NRAS wild-type protein (Homo sapiens, UniProt P01111); assay: Binding to NRAS by surface plasmon resonance (SPR), Single Cycle Kinetics; settings: SPR
GDP-bound NRAS wild-type protein, sequence (P01111 whole entry): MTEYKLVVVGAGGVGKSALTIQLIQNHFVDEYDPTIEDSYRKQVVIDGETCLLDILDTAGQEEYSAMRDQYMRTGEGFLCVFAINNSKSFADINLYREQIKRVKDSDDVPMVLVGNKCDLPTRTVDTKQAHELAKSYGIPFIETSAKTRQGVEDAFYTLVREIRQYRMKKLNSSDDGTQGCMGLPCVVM

[2] = target: GDP-bound HRAS wild-type protein (Homo sapiens, UniProt P01112); assay: Binding to HRAS by surface plasmon resonance (SPR), Single Cycle Kinetics; settings: SPR
GDP-bound HRAS wild-type protein, sequence (P01112 whole entry): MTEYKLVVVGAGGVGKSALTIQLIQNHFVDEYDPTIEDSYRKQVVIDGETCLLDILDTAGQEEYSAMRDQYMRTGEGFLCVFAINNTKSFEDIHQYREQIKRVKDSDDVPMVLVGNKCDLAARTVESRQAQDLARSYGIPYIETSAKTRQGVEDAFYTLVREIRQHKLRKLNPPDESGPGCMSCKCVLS

For `CC[C@H](C)[C@@H]1NC(=O)[C@H](C)N(C)C(=O)C[C@@H](C(=O)N2CCOCC2)N(C)C(=O)[C@H](C2CCCC2)N(C)C(=O)C2(CCCC2)NC(=O)[C@@H]2CCCN2C(=O)[C@H](CCc2ccc(C(F)(F)F)c(Cl)c2)NC(=O)CN(C)C(=O)[C@H](Cc2ccc(C)cc2)N(CC)C(=O)[C@@H]2CCN2C(=O)[C@H](C)N(C)C1=O` [PP0007] ([NMeA]I[NMeA][Aze][NEtPhe(4-Me)][Sar][hPhe(3-Cl-4-CF3)]P[Ac5c][NMeGly(cPent)][NMeD]-Morpholide; lactam N-11), the “NRAS/KRAS (ratio of KD for GDP-bound NRAS wild-type to KD for KRAS)” value [1] was “C (A compound having a KD ratio of 0.1 or more and less than 3 is denoted as C)” and the “HRAS/KRAS (ratio of KD for GDP-bound HRAS wild-type to KD for KRAS)” value [2] was “C (A compound having a KD ratio of 0.1 or more and less than 3 is denoted as C)”.

For `CCO[C@@H]1C[C@H]2C(=O)NC3(CCC3)C(=O)N(C)[C@@H](C3CCCC3)C(=O)N(CCc3ccccc3)[C@H](C(=O)N3CCOCC3)CC(=O)N(C)[C@@H](CC(C)C)C(=O)N[C@@H]([C@@H](C)CC)C(=O)N(C)CC(=O)N(C)[C@H]3CCCCN(C3=O)[C@@H](Cc3ccc(C(F)(F)F)cc3)C(=O)N(C)CC(=O)N[C@@H](CCc3cc(F)c(C(F)(F)F)c(F)c3)C(=O)N2C1` [PP0652], the “NRAS/KRAS (ratio of KD value with respect to GDP-bound NRAS wild-type protein to KD value with respect to KRAS)” value [1] was “B (a compound having 3 or more and less than 10 is denoted as B)” and the “HRAS/KRAS (ratio of KD value with respect to GDP-bound HRAS wild-type protein to KD value with respect to KRAS)” value [2] was “B (a compound having 3 or more and less than 10 is denoted as B)”.

With `CC[C@H](C)[C@@H]1NC(=O)[C@H](C2CC2)N(C)C(=O)C[C@@H](C(=O)N(C)C)N(C)C(=O)[C@H](C2CCCC2)N(C)C(=O)C2(CCC2)N(C)C(=O)[C@@H]2CCCN2C(=O)[C@H](CCc2cc(F)c(C(F)(F)F)c(F)c2)NC(=O)CN(C)C(=O)[C@H](Cc2ccc(C)cc2)N2CC/C=C\C[C@@H](C2=O)N(C)C(=O)CN(C)C1=O` [PP1784] the “NRAS/KRAS (ratio of KD value for NRAS to KD value for KRAS)” value ([1]; KD ratio, GDP-bound NRAS wild-type vs GDP-bound KRAS wild-type) was “A (a compound having 10 or more and less than 20 is denoted as A)” and the “HRAS/KRAS (ratio of KD value for HRAS to KD value for KRAS)” value ([2]; KD ratio, GDP-bound HRAS wild-type vs GDP-bound KRAS wild-type) was “B (a compound having 3 or more and less than 10 is denoted as B)”.

In the case of `CCO[C@@H]1C[C@H]2C(=O)NC3(CCC3)C(=O)N(C)[C@@H](C3CCCC3)C(=O)N(C)[C@H](C(=O)N3CCOCC3)CC(=O)N(C)[C@@H](CC(C)C)C(=O)N[C@@H]([C@@H](C)CC)C(=O)N(C)CC(=O)N(C)[C@H]3CCCCCN(C3=O)[C@@H](Cc3ccc(C(F)(F)F)cc3)C(=O)N(C)CC(=O)N[C@@H](CCc3cc(F)c(C(F)(F)F)c(F)c3)C(=O)N2C1` [PP0467], the “NRAS/KRAS (ratio of KD value with respect to GDP-bound NRAS wild-type protein to KD value with respect to KRAS)” value [1] was “B (a compound having 3 or more and less than 10 is denoted as B)” and the “HRAS/KRAS (ratio of KD value with respect to GDP-bound HRAS wild-type protein to KD value with respect to KRAS)” value [2] was “B (a compound having 3 or more and less than 10 is denoted as B)”.

With `CCCN1C(=O)CN(C)C(=O)CN(CC)C(=O)[C@H]([C@@H](C)CC)NC(=O)[C@H](CC(C)C)N(C)C(=O)C[C@@H](C(=O)N2CCOCC2)N(C)C(=O)[C@H](C2CCCC2)N(C)C(=O)C2(CCCC2)NC(=O)[C@@H]2COCCN2C(=O)[C@H](CCc2ccc(C(F)(F)F)c(Cl)c2)NC(=O)CN(C)C(=O)[C@@H]1Cc1ccc(C(F)(F)F)cc1` [PP0299] ([NMeL]I[NEtG][Sar][NPrPhe(4-CF3)][Sar][hPhe(3-Cl-4-CF3)][Morpholine(3S-CO)][Ac5c][NMeGly(cPent)][NMeD]-Morpholide; lactam N-11) the “NRAS/KRAS (ratio of KD for GDP-bound NRAS wild-type to KD for KRAS)” value [1] was “B (a compound having 3 or more and less than 10 is denoted as B)” and the “HRAS/KRAS (ratio of KD for GDP-bound HRAS wild-type to KD for KRAS)” value [2] was “B (a compound having 3 or more and less than 10 is denoted as B)”.

For `CCCN1C(=O)CN(C)C(=O)CNC(=O)[C@H]([C@@H](C)CC)NC(=O)[C@H](CC(C)C)N(C)C(=O)C[C@@H](C(=O)N(C)C)N(C)C(=O)[C@H](C2CCCC2)N(C)C(=O)C2(CCCC2)NC(=O)[C@@H]2CC(F)(F)CN2C(=O)[C@H](CCc2ccc(C(F)(F)F)c(Cl)c2)NC(=O)CN(C)C(=O)[C@@H]1Cc1ccc(C(F)(F)F)cc1` [PP0419] ([NMeL]IG[Sar][NPrPhe(4-CF3)][Sar][hPhe(3-Cl-4-CF3)][Pro(4,4-F2)][Ac5c][NMeGly(cPent)][NMeD]-NMe2; lactam N-11), the “NRAS/KRAS (ratio of KD value with respect to GDP-bound NRAS wild-type protein to KD value with respect to KRAS)” value [1] was “B (a compound having 3 or more and less than 10 is denoted as B)” and the “HRAS/KRAS (ratio of KD value with respect to GDP-bound HRAS wild-type protein to KD value with respect to KRAS)” value [2] was “C (A compound having a KD ratio of 0.1 or more and less than 3 is denoted as C)”.

`CCC[C@H]1C(=O)N[C@@H]([C@@H](C)CC)C(=O)N(C2CC2)CC(=O)N(C)[C@H]2C/C=C\CCN(C2=O)[C@@H](CC2CCC(F)(F)CC2)C(=O)N(C)CC(=O)N[C@@H](CCc2ccc(C(F)(F)F)c(OC)c2)C(=O)N2C[C@@H](C)C[C@H]2C(=O)N(C)C2(CCC2)C(=O)N(C)[C@@H](C2CCCC2)C(=O)N(C)[C@H](C(=O)N(C)C)CC(=O)N1C` [PP2378] was tested, and the “NRAS/KRAS (ratio of KD value with respect to NRAS to KD value with respect to KRAS)” value ([1]; GDP-bound NRAS wild-type vs GDP-bound KRAS wild-type) was “B (a compound having 3 or more and less than 10 is denoted as B)” and the “HRAS/KRAS (ratio of KD value with respect to HRAS to KD value with respect to KRAS)” value ([2]; GDP-bound HRAS wild-type vs GDP-bound KRAS wild-type) was “A (a compound having 10 or more and less than 20 is denoted as A)”.
